Values quoted from earlier work as cited in US7858602B2, “Therapeutic and prophylactic uses of cell specific carbonic anhydrase enzymes in treating aging disorders due to oxidative stress and as growth factors of stem cells” (priority 2000, dated 2010).

B1: CA III: Carbonic anhydrase III isolated from adult human skeletal muscle (protein, UniProt P07451 2-260, looked up)
Carbonic anhydrase 3: AKEWGYASHNGPDHWHELFPNAKGENQSPVELHTKDIRHDPSLQPWSVSYDGGSAKTILNNGKTCRVVFDDTYDRSMLRGGPLPGPYRLRQFHLHWGSSDDHGSEHTVDGVKYAAELHLVHWNPKYNTFKEALKQRDGIAVIGIFLKIGHENGEFQIFLDALDKIKTKGKEAPFTKFDPSCLFPACRDYWTYQGSFTTPPCEECIVWLLLKEPMTVSSDQMAKLRSLLSSAENEPPVPLVSNWRPPQPINNRVVRASFK

Assays:
[1] = test system: human synovial cells and synovial tissue cultures
[2] = test system: carbonic anhydrase VI (CA-VI); conditions: orally administered, patients with CA-VI deficiency
[3] = test system: CA; conditions: in vitro and in vivo
[4] = test system: sympathetic nerve terminals
[5] = test system: gastric acid output
[6] = test system: synovial connective tissue fibroblast
[7] = test system: muscle fibroblast; conditions: exposure to CA III

Row | Molecule | Prostaglandin PGE2 production [1] | hyaluronic acid production [1] | nitric oxide production [1] | effect on CA [3] | other results
1 | CNCCC(Oc1ccc(C(F)(F)F)cc1)c1ccccc1 (stereo not drawn) [Fluoxetine] | inhibit | inhibit | inhibit | – | –
2 | [Zn] [Zinc] | – | – | – | – | stimulation of synthesis/secretion of CA-VI, treatment result [2]: successful
3 | CN(C)CCC=C1c2ccccc2CCc2ccccc21 [aminitriptylline] | inhibit | inhibit | inhibit | – | –
4 | CCCCC[C@H](O)/C=C/[C@H]1[C@H](O)CC(=O)[C@@H]1CCCCCCC(=O)O [prostaglandin E1] | – | – | – | inhibit | –
5 | CCCCC[C@H](O)/C=C/[C@H]1[C@H](O)CC(=O)[C@@H]1C/C=C\CCCC(=O)O [prostaglandin E2, Prostaglandin E2] | – | – | – | inhibit | egress of norepinephrine from sympathetic nerve terminals [4]: inhibits; gastric acid output [5]: inhibit
6 | B1 | – | – | – | – | increase of synovial connective tissue fibroblast on exposure to CA III ([6]; cell culture): 2 to 12 fold; hyaluronic acid synthesis ([6]; cell culture, exposure to CA III): increased; increase in synovial fibroblasts ([6]; exposure to CA III): 16-70%; increase in muscle fibroblast [7]: 20-45%
